We go through 18 molecules from ChEMBL document CHEMBL4340570, “Design, synthesis, and biological evaluation of novel 4-oxobenzo[d]1,2,3-triazin-benzylpyridinum derivatives as potent anti-Alzheimer agents” (Bioorg Med Chem, 2019).

Experiment [1] has as its target T1, Acetylcholinesterase (Electrophorus electricus, UniProt O42275). In words: Inhibition of electric eel AChE pre-incubated for 5 mins before acetylthiocholine iodide substrate addition and measured after 15 mins by Ellman's method.
The next experiment has as its target Cholinesterase (Equus caballus, UniProt P81908). The experiment in a line: Inhibition of equine serum BuChE pre-incubated for 5 mins before butyrylthiocholine iodide substrate addition and measured after 15 mins by Ellman's method.
The test system of experiment [2] is PC-12. The experiment in a line: Neuroprotective activity in rat PC12 cells assessed as protection against H2O2-induced cytotoxicity at 10 uM pre-incubated for 3 hrs before H2O2 addition and measured after 12 hrs by MTT assay. Type of experiment: functional, cell-based. On the technique in general: Formazan colour is commonly taken as a measure of viable cells.

Experiment [3] deals with T1, Acetylcholinesterase. In words: Mixed type inhibition of electric eel AChE pre-incubated for 5 mins before acetylthiocholine iodide substrate addition and measured after 15 mins by modified Ellman's method baaed Lineweaver-Burk plot analysis.
For experiment [4], the system named is PC-12. The experiment in a line: Neuroprotective activity in rat PC12 cells assessed as protection against H2O2-induced cytotoxicity at 100 uM pre-incubated for 3 hrs before H2O2 addition and measured after 12 hrs by MTT assay. The experiment is classed as functional, cell-based.
In experiment [5] the target is Beta-secretase 1 (Homo sapiens) (UniProt P56817). The experiment in a line: Inhibition of recombinant human BACE1 (1 to 460 residues) expressed in baculovirus-infected insect cells at 10 uM using Rh-EVNLDAEFK-quencher as substrate measured after 90 mins by FRET assay relative to control.
Sequence of Beta-secretase 1 (Homo sapiens) (P56817 whole entry, the tested form may be a part): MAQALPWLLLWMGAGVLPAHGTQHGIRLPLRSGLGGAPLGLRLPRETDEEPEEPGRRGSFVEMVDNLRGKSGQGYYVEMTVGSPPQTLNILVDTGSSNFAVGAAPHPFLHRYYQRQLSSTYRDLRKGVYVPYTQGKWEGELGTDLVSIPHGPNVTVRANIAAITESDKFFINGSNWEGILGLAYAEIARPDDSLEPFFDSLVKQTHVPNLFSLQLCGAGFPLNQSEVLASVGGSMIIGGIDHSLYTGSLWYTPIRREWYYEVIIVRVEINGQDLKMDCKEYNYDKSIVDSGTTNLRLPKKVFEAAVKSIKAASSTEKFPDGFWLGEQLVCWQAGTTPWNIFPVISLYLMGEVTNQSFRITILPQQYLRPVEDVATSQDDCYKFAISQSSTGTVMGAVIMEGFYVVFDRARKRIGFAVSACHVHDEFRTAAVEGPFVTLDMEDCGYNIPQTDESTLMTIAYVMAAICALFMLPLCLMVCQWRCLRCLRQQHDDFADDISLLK
The target is the same in experiment [6]. The experiment in a line: Inhibition of recombinant human BACE1 (1 to 460 residues) expressed in baculovirus-infected insect cells at 50 uM using Rh-EVNLDAEFK-quencher as substrate measured after 90 mins by FRET assay relative to control.
In experiment [7] the test system is PC-12. The experiment in a line: Neuroprotective activity in rat PC12 cells assessed as protection against H2O2-induced cytotoxicity at 1 uM pre-incubated for 3 hrs before H2O2 addition and measured after 12 hrs by MTT assay. Type of experiment: functional, cell-based.

Each structure is given as a SMILES string. The source made the active and inactive calls. The calls are words filed in the database; no cut-off is given here.

T1 sequence (O42275 whole entry): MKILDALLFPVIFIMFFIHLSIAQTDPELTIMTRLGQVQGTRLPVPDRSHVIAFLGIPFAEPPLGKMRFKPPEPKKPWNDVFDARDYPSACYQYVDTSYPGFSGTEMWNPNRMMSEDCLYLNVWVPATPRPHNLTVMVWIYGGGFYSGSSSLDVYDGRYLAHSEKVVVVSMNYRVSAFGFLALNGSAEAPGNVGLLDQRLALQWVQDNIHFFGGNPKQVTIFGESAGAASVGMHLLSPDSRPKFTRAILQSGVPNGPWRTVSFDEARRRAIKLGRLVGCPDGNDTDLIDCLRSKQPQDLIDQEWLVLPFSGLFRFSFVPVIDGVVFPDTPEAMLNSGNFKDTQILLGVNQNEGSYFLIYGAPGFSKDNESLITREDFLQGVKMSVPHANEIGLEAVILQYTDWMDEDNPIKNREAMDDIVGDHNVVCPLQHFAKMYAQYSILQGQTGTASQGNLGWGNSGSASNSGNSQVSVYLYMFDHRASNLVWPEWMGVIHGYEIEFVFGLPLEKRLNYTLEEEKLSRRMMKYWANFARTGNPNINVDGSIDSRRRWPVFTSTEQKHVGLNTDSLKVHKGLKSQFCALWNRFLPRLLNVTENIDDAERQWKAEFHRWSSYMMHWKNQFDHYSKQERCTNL
Sequence of Cholinesterase (P81908 whole entry): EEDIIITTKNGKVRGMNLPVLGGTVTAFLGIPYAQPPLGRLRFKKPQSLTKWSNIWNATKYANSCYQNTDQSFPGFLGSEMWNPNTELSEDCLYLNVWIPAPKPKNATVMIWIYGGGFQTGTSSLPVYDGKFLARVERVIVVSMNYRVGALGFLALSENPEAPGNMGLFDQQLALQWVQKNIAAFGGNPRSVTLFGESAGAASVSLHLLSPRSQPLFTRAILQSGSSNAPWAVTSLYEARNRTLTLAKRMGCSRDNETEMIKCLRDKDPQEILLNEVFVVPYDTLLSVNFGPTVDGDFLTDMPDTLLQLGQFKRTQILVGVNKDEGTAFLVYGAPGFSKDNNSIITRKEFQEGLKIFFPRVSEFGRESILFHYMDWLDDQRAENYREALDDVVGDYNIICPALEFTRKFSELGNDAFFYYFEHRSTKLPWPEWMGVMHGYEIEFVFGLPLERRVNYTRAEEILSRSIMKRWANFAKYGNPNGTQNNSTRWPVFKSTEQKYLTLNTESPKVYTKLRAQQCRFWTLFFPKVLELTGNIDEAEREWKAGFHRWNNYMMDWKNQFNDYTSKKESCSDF

As usually defined, the IC50 is the concentration at which inhibition is half-maximal. Low values mean inhibition by little substance, high ones a need for much substance. Regarding `O=c1c2ccccc2nnn1Cc1cc[n+](Cc2ccccc2Cl)cc1`, the results for the IC50 on Acetylcholinesterase [1] and against Cholinesterase were 1.37 µM and 55 µM, respectively.

With `O=c1c2ccccc2nnn1Cc1cc[n+](Cc2ccccc2F)cc1`, the results for the IC50 against Acetylcholinesterase [1] and at Cholinesterase were 1.68 µM and 64.6 µM, respectively.

Regarding `O=c1c2ccccc2nnn1Cc1ccc[n+](Cc2ccc(Br)cc2)c1`, the IC50 against Acetylcholinesterase [1] is 0.84 µM; against Cholinesterase it was 5.8 µM.

In the case of `O=c1c2ccccc2nnn1Cc1ccc[n+](Cc2ccccc2F)c1`, the IC50 against Acetylcholinesterase [1] is 0.29 µM; on Cholinesterase, 23.9 µM.

Take `O=c1c2ccccc2nnn1Cc1cc[n+](Cc2ccccc2[N+](=O)[O-])cc1`: the IC50 against Acetylcholinesterase [1] worked out at 1.3 µM; at Cholinesterase, 18.2 µM.

Regarding `O=c1c2ccccc2nnn1Cc1cc[n+](Cc2ccccc2)cc1`, the IC50 at Acetylcholinesterase [1] turned out to be 1.34 µM; at Cholinesterase, 75.2 µM.

In the case of `O=c1c2ccccc2nnn1Cc1cc[n+](Cc2ccc(F)cc2)cc1`, the IC50 amounted to 1.64 µM against Acetylcholinesterase [1] and 70.7 µM against Cholinesterase.

Consider `O=c1c(O)c(-c2ccc(O)c(O)c2)oc2cc(O)cc(O)c12`, for which the outcome in the experiment on PC-12 [2] was Active.

As to `O=c1c2ccccc2nnn1Cc1cc[n+](Cc2ccc(Br)cc2)cc1`, the results for the IC50 against Acetylcholinesterase [1] and at Cholinesterase were 1.18 µM and 51.8 µM, respectively.

Turning to `O=c1c2ccccc2nnn1Cc1ccc[n+](Cc2cccc(F)c2)c1`, the IC50 on Acetylcholinesterase [1] came to 0.17 µM; against Cholinesterase, 27.8 µM.

For the molecule `Cc1ccccc1C[n+]1cccc(Cn2nnc3ccccc3c2=O)c1`, the IC50 at Acetylcholinesterase [1] came to 0.2 µM; against Cholinesterase, 13.7 µM.

A word on the Ki: it is the equilibrium dissociation constant of an inhibitor or competing ligand from its target. Lower therefore signals tighter binding. What is called inhibition is the share of the control response that was lost under treatment. For `O=c1c2ccccc2nnn1Cc1ccc[n+](Cc2ccccc2[N+](=O)[O-])c1`, the IC50 against Acetylcholinesterase [1] was determined as 0.1 µM; at Cholinesterase, 17.5 µM. Further, at Acetylcholinesterase [3], the Ki worked out at 0.017 µM. In the experiment with PC-12 [4], the result was Active. Moreover, the inhibition stood at 37% in experiment [5] and 61.2% in experiment [6].

On to `O=c1c2ccccc2nnn1Cc1ccc[n+](Cc2ccc([N+](=O)[O-])cc2)c1`, for which the IC50 on Acetylcholinesterase [1] amounted to 0.16 µM; against Cholinesterase, 17.2 µM.

Regarding `O=c1c2ccccc2nnn1Cc1ccc[n+](Cc2c(Cl)cccc2Cl)c1`, the IC50 against Acetylcholinesterase [1] worked out at 0.73 µM; against Cholinesterase, 21.6 µM.

For the molecule `O=c1c2ccccc2nnn1Cc1ccc[n+](Cc2ccccc2Br)c1`, the IC50 against Acetylcholinesterase [1] came out at 0.15 µM; on Cholinesterase it was 16.8 µM. In addition, the outcome in the experiment with PC-12 [4], with PC-12 [7] and in the experiment on PC-12 [2] was Active.

Regarding `O=c1c2ccccc2nnn1Cc1ccc[n+](Cc2ccccc2)c1`, the IC50 was 0.17 µM at Acetylcholinesterase [1] and 31.2 µM on Cholinesterase.

With `O=c1c2ccccc2nnn1Cc1ccc[n+](Cc2cccc(Br)c2)c1`, the results for the IC50 against Acetylcholinesterase [1] and on Cholinesterase were 0.3 µM and 14.7 µM, respectively.

Take `O=c1c2ccccc2nnn1Cc1ccc[n+](Cc2ccc(F)cc2)c1`: the IC50 against Acetylcholinesterase [1] is 0.15 µM; at Cholinesterase, 23.8 µM. In addition, in the experiment on PC-12 [7], the outcome was Active.
